According to US6737383B1, “Herbicidal oxadiazolidines” (priority 1999, dated 2004):

Key:
rape = test: Test B pre/postemergence rape; assay type: in vivo, Brassica napus
Summary of the method: (§1)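 Response is a visual 0-to-10 score relative to untreated plants, where 0 means no effect and 10 means complete control, taken twelve to sixteen days after application. Treatments went onto soil at planting and onto foliage of 1- to 4-leaf plants, using a surfactant-containing non-phytotoxic solvent.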

wheat = test: Test B pre/postemergence wheat; assay type: in vivo, Triticum aestivum
Summary of the method: as §1

giant foxtail = test: Test B pre/postemergence giant foxtail; assay type: in vivo, Setaria faberii
Summary of the method: as §1

sugar beet = test: Test B pre/postemergence sugar beet; assay type: in vivo, Beta vulgaris
Summary of the method: as §1

pigweed = test: Test B pre/postemergence pigweed; assay type: in vivo, Amaranthus retroflexus
Summary of the method: as §1

rice = test: Test B flood test rice; assay type: in vivo, Oryza sativa
Summary of the method: (§2)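 Plants were grown to the 2-leaf stage before treatment with test chemical, then held in a greenhouse for twelve to sixteen days. Injury was visually rated against untreated controls on a 0–10 scale, where 0 is no effect and 10 is complete control.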

smallflower flatsedge = test: Test B flood test smallflower flatsedge; assay type: in vivo, Cyperus difformis
Summary of the method: as §2

crabgrass = test: Test B pre/postemergence crabgrass; assay type: in vivo, Digitaria sanguinalis
Summary of the method: as §1

corn = test: Test B pre/postemergence corn; assay type: in vivo, Zea mays
Summary of the method: as §1

wild oat = test: Test B pre/postemergence wild oat; assay type: in vivo, Avena fatua
Summary of the method: as §1

purple nutsedge = test: Test B pre/postemergence purple nutsedge; assay type: in vivo, Cyperus rotundus
Summary of the method: as §1

velvetleaf = test: Test B pre/postemergence velvetleaf; assay type: in vivo, Abutilon theophrasti
Summary of the method: as §1

cocklebur = test: Test B pre/postemergence cocklebur; assay type: in vivo, Xanthium strumarium
Summary of the method: as §1

bamyardgrass = test: Test B flood test barnyardgrass; assay type: in vivo, Echinochloa crus-galli
Summary of the method: as §2

soybean = test: Test B pre/postemergence soybean; assay type: in vivo, Glycine max
Summary of the method: as §1

morningglory = test: Test B pre/postemergence morningglory; assay type: in vivo, Ipomoea hederacea
Summary of the method: as §1

duck salad = test: Test B flood test duck salad; assay type: in vivo, Heteranthera limosa
Summary of the method: as §2

blackgrass = test: Test B pre/postemergence blackgrass; assay type: in vivo, Alopecurus myosuroides
Summary of the method: as §1

surinam grass = test: Test B pre/postemergence surinam grass; assay type: in vivo, Brachiaria decumbens
Summary of the method: as §1

bedstraw = test: Test B pre/postemergence bedstraw; assay type: in vivo, Galium aparine; conditions: Postemergence
Summary of the method: as §1

[1] = Postemergence, Rate 62 g/ha, scale 0 to 10, 0 is no effect, 10 is complete control
[2] = Postemergence, Rate 125 g/ha, scale of 0 to 10 where 0 is no effect and 10 is complete control
[3] = Postemergence, Rate 250 g/ha, scale of 0 to 10, 0 is no effect, 10 is complete control
[4] = Postemergence, Rate 500 g/ha, scale of 0 to 10 where 0 is no effect and 10 is complete control
[5] = Preemergence, Rate 62 g/ha, scale 0 to 10 (0 no effect, 10 complete control)
[6] = Preemergence, Rate 125 g/ha, scale of 0 to 10 where 0 is no effect and 10 is complete control
[7] = Preemergence, Rate 500 g/ha, scale of 0 to 10 where 0 is no effect and 10 is complete control
[8] = Rate 62 g/ha, flood test species, Pre-emergence, visual evaluation after twelve to sixteen days
[9] = Rate 125 g/ha, under heading Pre-emergence, flood test species, visual evaluation after twelve to sixteen days
[10] = Rate 250 g/ha, Pre-emergence (flood test species), scale 0 to 10, 0 is no effect, 10 is complete control
[11] = Rate 500 g/ha, Pre-emergence section of Table B, 0 to 10 scale (0 no effect, 10 complete control)

C=C(C)Cn1c(=O)on(C(=O)N(c2ccccc2)C(C)C)c1=O [Compound 607]
Plant response rating, Rape (rape; [1]): 0
Plant response rating, Rape (rape; [2]): 0
Rape plant response rating (rape; [3]): 0
Plant response rating, Rape (rape; [4]): 0
Rape plant response rating (rape; [5]): 0
Rape plant response rating (rape; [6]): 6
Plant response rating, Rape (rape; [7]): 7
Plant response rating, Wheat (wheat; [1]): 0
Plant response rating, Wheat (wheat; [2]): 0
Wheat plant response rating (wheat; [3]): 2
Plant response rating, Wheat (wheat; [4]): 4
Wheat plant response rating (wheat; [5]): 0
Wheat plant response rating (wheat; [6]): 0
Plant response rating, Wheat (wheat; [7]): 3
Plant response rating, Giant foxtail (giant foxtail; [1]): 6
Plant response rating, Giant foxtail (giant foxtail; [2]): 6
Giant foxtail plant response rating (giant foxtail; [3]): 7
Plant response rating, Giant foxtail (giant foxtail; [4]): 9
Giant foxtail plant response rating (giant foxtail; [5]): 9
Giant foxtail plant response rating (giant foxtail; [6]): 10
Plant response rating, Giant foxtail (giant foxtail; [7]): 10
Plant response rating, Sugarbeets (sugar beet; [1]): 0
Plant response rating, Sugarbeets (sugar beet; [2]): 0
Sugarbeets plant response rating (sugar beet; [3]): 0
Plant response rating, Sugarbeets (sugar beet; [4]): 0
Sugarbeets plant response rating (sugar beet; [5]): 0
Sugarbeets plant response rating (sugar beet; [6]): 0
Plant response rating, Sugarbeets (sugar beet; [7]): 5
Plant response rating, Redroot pigweed (pigweed; [1]): 0
Plant response rating, Redroot pigweed (pigweed; [2]): 0
Redroot pigweed plant response rating (pigweed; [3]): 0
Plant response rating, Redroot pigweed (pigweed; [4]): 5
Redroot pigweed plant response rating (pigweed; [5]): 4
Redroot pigweed plant response rating (pigweed; [6]): 7
Plant response rating, Redroot pigweed (pigweed; [7]): 10
Plant response rating, Rice (0 to 10 scale, 0 is no effect, 10 is complete control) (rice; [8]): 0
Rice plant response rating (0 to 10 scale, 0 is no effect, 10 is complete control) (rice; [9]): 0
Rice plant response rating (rice; [10]): 0
Rice plant response rating (rice; [11]): 0
Plant response rating, S. Flatsedge (0 to 10 scale, 0 is no effect, 10 is complete control) (smallflower flatsedge; [8]): 0
S. Flatsedge plant response rating (0 to 10 scale, 0 is no effect, 10 is complete control) (smallflower flatsedge; [9]): 0
S. Flatsedge plant response rating (smallflower flatsedge; [10]): 0
S. Flatsedge plant response rating (smallflower flatsedge; [11]): 0
Plant response rating, Crabgrass (crabgrass; [1]): 5
Crabgrass plant response rating (crabgrass; [3]): 8
Plant response rating, Crabgrass (crabgrass; [4]): 9
Crabgrass plant response rating (crabgrass; [5]): 7
Crabgrass plant response rating (crabgrass; [6]): 8
Plant response rating, Crabgrass (crabgrass; [7]): 9
Plant response rating, Corn (corn; [1]): 0
Plant response rating, Corn (corn; [2]): 0
Corn plant response rating (corn; [3]): 0
Plant response rating, Corn (corn; [4]): 2
Corn plant response rating (corn; [5]): 0
Corn plant response rating (corn; [6]): 0
Corn plant response rating (0 to 10 scale) (corn; Preemergence, Rate 250 g/ha): 0
Plant response rating, Corn (corn; [7]): 6
Plant response rating, Wild oats (wild oat; [1]): 0
Plant response rating, Wild oats (wild oat; [2]): 0
Wild oats plant response rating (wild oat; [3]): 0
Plant response rating, Wild oats (wild oat; [4]): 4
Wild oats plant response rating (wild oat; [5]): 0
Wild oats plant response rating (wild oat; [6]): 2
Plant response rating, Wild oats (wild oat; [7]): 6
Plant response rating, Nutsedge (purple nutsedge; [1]): 0
Plant response rating, Nutsedge (purple nutsedge; [2]): 0
Nutsedge plant response rating (purple nutsedge; [3]): 0
Plant response rating, Nutsedge (purple nutsedge; [4]): 7
Nutsedge plant response rating (purple nutsedge; [6]): 0
Plant response rating, Nutsedge (purple nutsedge; [7]): 0
Plant response rating, Velvetleaf (velvetleaf; [1]): 0
Plant response rating, Velvetleaf (velvetleaf; [2]): 0
Velvetleaf plant response rating (velvetleaf; [3]): 3
Plant response rating, Velvetleaf (velvetleaf; [4]): 5
Velvetleaf plant response rating (velvetleaf; [5]): 0
Velvetleaf plant response rating (velvetleaf; [6]): 3
Plant response rating, Velvetleaf (velvetleaf; [7]): 8
Plant response rating, Cocklebur (cocklebur; [1]): 0
Plant response rating, Cocklebur (cocklebur; [2]): 0
Cocklebur plant response rating (cocklebur; [3]): 0
Plant response rating, Cocklebur (cocklebur; [4]): 0
Cocklebur plant response rating (cocklebur; [5]): 0
Cocklebur plant response rating (cocklebur; [6]): 0
Cocklebur plant response rating (0 to 10 scale) (cocklebur; Preemergence, Rate 250 g/ha): 0
Plant response rating, Cocklebur (cocklebur; [7]): 0
Plant response rating, Barnyardgrass (0 to 10 scale, 0 is no effect, 10 is complete control) (bamyardgrass; [8]): 0
Barnyardgrass plant response rating (0 to 10 scale, 0 is no effect, 10 is complete control) (bamyardgrass; [9]): 0
Barnyardgrass plant response rating (bamyardgrass; [10]): 0
Barnyardgrass plant response rating (bamyardgrass; [11]): 0
Plant response rating, Soybean (soybean; [1]): 3
Plant response rating, Soybean (soybean; [2]): 4
Soybean plant response rating (soybean; [3]): 6
Soybean plant response rating (soybean; [5]): 0
Soybean plant response rating (soybean; [6]): 0
Plant response rating, Soybean (soybean; [7]): 4
Plant response rating, Morningglory (morningglory; [1]): 6
Plant response rating, Morningglory (morningglory; [2]): 8
Morningglory plant response rating (morningglory; [3]): 8
Plant response rating, Morningglory (morningglory; [4]): 10
Morningglory plant response rating (morningglory; [5]): 0
Morningglory plant response rating (morningglory; [6]): 0
Plant response rating, Morningglory (morningglory; [7]): 0
Plant response rating, Ducksalad (0 to 10 scale, 0 is no effect, 10 is complete control) (duck salad; [8]): 0
Ducksalad plant response rating (0 to 10 scale, 0 is no effect, 10 is complete control) (duck salad; [9]): 0
Ducksalad plant response rating (duck salad; [10]): 0
Ducksalad plant response rating (duck salad; [11]): 0
Plant response rating, Blackgrass (blackgrass; [1]): 0
Plant response rating, Blackgrass (blackgrass; [2]): 4
Blackgrass plant response rating (blackgrass; [3]): 6
Plant response rating, Blackgrass (blackgrass; [4]): 7
Blackgrass plant response rating (blackgrass; [5]): 4
Blackgrass plant response rating (blackgrass; [6]): 7
Blackgrass plant response rating (0 to 10 scale) (blackgrass; Preemergence, Rate 250 g/ha): 8
Blackgrass plant response rating (blackgrass; [7]): 9
Plant response rating, B. signalgrass (surinam grass; [1]): 0
Plant response rating, B. signalgrass (surinam grass; [2]): 0
B. signalgrass plant response rating (surinam grass; [3]): 4
Plant response rating, B. signalgrass (surinam grass; [4]): 7
B. signalgrass plant response rating (surinam grass; [5]): 4
B. signalgrass plant response rating (surinam grass; [6]): 7
B. signalgrass plant response rating (0 to 10 scale, 0 is no effect, 10 is complete control) (surinam grass; Preemergence, Rate 250 g/ha): 8
B. signalgrass plant response rating (surinam grass; [7]): 8
Plant response rating, Bedstraw (bedstraw; Rate 62 g/ha, scale 0 to 10, 0 is no effect, 10 is complete control): 0
Plant response rating, Bedstraw (bedstraw; Rate 125 g/ha, scale of 0 to 10 where 0 is no effect and 10 is complete control): 0
